In patent US12122787B2, “Fused pyridone compound, and preparation method therefor and use thereof” (SHANGHAI JEMINCARE PHARMACEUTICALS CO., LTD, priority 2019, dated 2024):
Like-named read-outs stand apart in the source and are kept apart here.

What was measured:
Type in all cases: cell-based
[1] = system: NCI-H358 cells expressing KRAS-G12C; assay: Growth inhibition of tumor cell line expressing KRAS-G12C (Cell Titer Glo), NCI-H358
Experimental: (§1) The ability of the compounds of the present disclosure to inhibit the growth of cells expressing KRAS-G12C was evaluated by measuring the cell viability and calculating the GI50 values.
(§2) The tumor cell line NCI-H358 (ATCC catalogue number CRL-5807) expressing KRAS-G12C was cultured in RPMI medium supplemented with 10% fetal bovine serum and penicillin/streptomycin, and the tumor cell line MIA PaCa2 (ATCC CRL-1420) expressing KRAS-G12C was cultured in DMEM medium supplemented with 10% fetal bovine serum, 2.5% horse serum, and penicillin/streptomycin.
(§3) Cells NCI-H358 and MIA-Paca2 were inoculated into black transparent bottom 384-well plate (PerkinElmer catalogue number 6007460) with cell density of 1000 and 800 respectively, and the cells were allowed to adhere to the wall overnight (8-12 hours). After the cells adhered to the wall, the experimental group was added with the compound of the present disclosure diluted 5 times the concentration of the working solution (final concentration containing 0.1% dimethyl sulfoxide, i.e. DMSO); the control group was added with the same dilution as the experimental group (final concentration containing 0.1% DMSO). After 72 hours, Cell Titer Glo reagent (Promega catalogue number G7572) was used to detect ATP content according to the instruction method to determine the amount of cell proliferation. The brief operation steps were as follows: the cell plate was taken out and kept at normal temperature for equilibrium for 30 minutes; Cell Titer Glo reagent with the same volume as the culture was added; the culture plate was placed on a shaker for shaking and cracking for 2 minutes; the culture plate was left to stand at room temperature for 10 minutes; then the light signal value was read by microplate reader EnVision (PerkinElmer).
(§4) Data from all experimental groups were used to calculate the respective percent inhibition using the DMSO group, and the GI50 was calculated using the data processing software GraphPad to analyze the inhibition rates produced by the 9 compound dose concentrations diluted at ⅓-fold ratio.

[2] = system: MIA PaCa2 cells expressing KRAS-G12C; assay: Growth inhibition of tumor cell line expressing KRAS-G12C (Cell Titer Glo), MIA PaCa2
Experimental: as §1, §2, §3, §4

[3] = system: phosphorylated ERK (Thr202/Tyr204) in NCI-H358 cells expressing mutant RAS(G12C); assay: Inhibition of RAS-mediated signal transduction: phosphorylated ERK ELISA in NCI-H358 cells
Experimental: The cells were treated with or without the compound of the present disclosure (dimethyl sulfoxide, DMSO), and the final concentration of DMSO was guaranteed to be 0.5%. After 2 hours of treatment, the medium was removed and 4% paraformaldehyde (Beyotime catalog number E672002-0100) was added and left to stand for 20 minutes. Cells were washed with PBS after fixation and incubated with precooled methanol for 10 min to permeabilize the cell membrane.
The level of phosphorylated ERK was detected using an enzyme linked immunosorbent assay (ELISA) method. […] The plates were washed 5 times with PBS containing 0.05% Tween 20. […] The reaction was stopped by adding 1 mol/L H2SO4, and the OD value was read at 450 nm by EnVision (PerkinElmer).
The total number of cells per well was detected by Janus Green B staining method. After detecting the level of phosphorylated ERK, the 96-well plate was washed with PBS until colorless, and 0.1% Janus Green B (Abcam catalogue number ab111622) was added to incubate for 10 minutes. After the 96-well plate was washed with double distilled water, 0.1 mol/L HCl was added, then the mixture was shaked and incubated for 10 minutes. The OD value was read at 595 nm by EnVision (PerkinElmer).
The signal of pERK (Thr202/Tyr204) was normalized by the signal value of Janus Green B, and the inhibition percentage after drug treatment relative to DMSO reference was calculated. The percentage values were fitted by a four-parameter dose-response curve and generated IC50 values.

[4] = Homo sapiens, MIA PaCa-2, 72 h, MIA-Paca2, 72 hours
[5] = NCI-H358 cells, 2 hours of treatment, pERK normalized by Janus Green B, read-out: p-ERK IC50 (NCI H358)
[6] = Homo sapiens, NCI-H358, 2 h, NCI-H358 cells, 2 hours of treatment, pERK normalized by Janus Green B, read-out: p-ERK IC50 (NCI H358)

SMILES | GI50 ([1]; Homo sapiens, NCI-H358, 72 h) [nM] | GI50 [2, 4] [nM] | GI50 ([1]; NCI-H358, 72 hours) [nM] | GI50 ([2]; MIA-Paca2, 72 hours) [nM] | IC50 [3, 5] [µM] | other results
C=CC(=O)N1C[C@@H]2COc3c(c4cc(F)c(-c5c(C)ccc6[nH]ncc56)nc4n(-c4ccccc4C(C)C)c3=O)N2C[C@H]1C (single isomer, unassigned) [Compound 13A] | 59 | 265 | – | – | 0.04 | –
C=CC(=O)N1C[C@@H]2CN(C)c3c(c4cc(F)c(-c5c(O)cccc5F)c(F)c4n(-c4c(C)ccnc4C(C)C)c3=O)N2C[C@H]1C (single isomer, unassigned) [Compound 16A-2] | – | – | 74 | 146 | 0.084 | –
C=CC(=O)N1C[C@@H]2CN(C)c3c(c4cc(F)c(-c5c(O)cccc5F)c(F)c4n(-c4c(C)ccnc4C(C)C)c3=O)N2C[C@H]1C (single isomer, unassigned) [Compound 16A] | 20 | 211 | – | – | 0.017 | –
C=CC(=O)N1CC2COc3c(c4cc(Cl)c(-c5c(O)cccc5F)c(F)c4n(-c4c(C)ccnc4C(C)C)c3=O)N2CC1C (single isomer, unassigned) [Compound 18B-2] | – | – | 149 | 172 | 0.102 | –
C=CC(=O)N1C[C@@H]2C(=O)N(C)c3c(c4cc(Cl)c(-c5ccc(F)c6nc(N)sc56)nc4n(-c4c(C)ccnc4C(C)C)c3=O)N2C[C@H]1C (single isomer, unassigned) [Compound 56A] | – | – | 223 | 448 | 0.183 | –
C=CC(=O)N1C[C@@H]2C(=O)N(C)c3c(c4cc(Cl)c(-c5ccc(F)c6nc(N)sc56)nc4n(-c4c(C)ccnc4C(C)C)c3=O)N2C[C@H]1C (single isomer, unassigned) [Compound 56B] | – | – | 12 | 25 | 0.011 | –
C=CC(=O)N1CCN(c2ncnc3c(F)c(-c4c(O)cccc4F)c(Cl)cc23)CC1 [ARS-1620] | – | – | – | – | – | GI50 ([1]; Homo sapiens, NCI-H358, 72 hours): 510 nM; GI50 ([2]; Homo sapiens, MIA PaCa-2, MIA-Paca2, 72 hours): 1210 nM; IC50 ([3]; Homo sapiens, NCI-H358, 2 h, read-out: p-ERK IC50 (NCI H358, μM)): 0.325 µM
C=CC(=O)N1C[C@@H]2COc3c(c4cc(F)c(-c5c(O)cccc5F)nc4n(-c4ccccc4C(C)C)c3=O)N2C[C@H]1C [Compound 2A] | 143 | 1020 | – | – | – | IC50 [3, 6]: 0.066 µM
C=CC(=O)N1C[C@@H]2COc3c(c4cc(F)c(-c5c(O)cccc5F)c(F)c4n(-c4c(C)ccnc4C(C)C)c3=O)N2C[C@H]1C [Compound 3B] | – | – | 8 | 39 | 0.008 | –
C=CC(=O)N1C[C@@H]2COc3c(c4cc(Cl)c(-c5c(O)cccc5F)c(F)c4n(C)c3=O)N2C[C@H]1C [Compound 4A] | 523 | 2400 | – | – | – | IC50 [3, 6]: 0.159 µM
C=CC(=O)N1C[C@@H]2CN(C)c3c(c4cc(Cl)c(-c5c(O)cccc5F)nc4n(-c4c(C)ccnc4C(C)C)c3=O)N2C[C@H]1C [Compound 8] | 22 | 37 | – | – | – | IC50 [3, 6]: 0.024 µM
C=CC(=O)N1C[C@@H]2CN(C)c3c(c4cc(F)c(-c5c(O)cccc5F)nc4n(-c4ccccc4C(C)C)c3=O)N2C[C@H]1C [Compound 10A] | 184 | 496 | – | – | – | IC50 [3, 6]: 0.063 µM
C=CC(=O)N1C[C@@H]2COc3c(c4cc(Cl)c(-c5c(O)cccc5F)c(F)c4n(-c4c(C)ccnc4C(C)C)c3=O)N2C[C@H]1C [Compound 18A-1] | – | – | 2 | 10 | 0.004 | –
C=CC(=O)N1C[C@@H]2COc3c(c4cc(Cl)c(-c5c(O)cccc5F)c(F)c4n(-c4c(C)ccnc4C(C)C)c3=O)N2C[C@H]1C [Compound 18A] | – | – | 6 | 13 | 0.005 | –
C=CC(=O)N1C[C@@H]2COc3c(c4cc(Cl)c(-c5c(O)cccc5F)c(F)c4n(-c4c(C)ccnc4C(C)C)c3=O)N2C[C@H]1C [Compound 18B-1] | – | – | 21 | 66 | 0.036 | –
C=CC(=O)N1C[C@@H]2COc3c(c4cc(F)c(-c5c(O)cccc5F)c(F)c4n(-c4c(C(C)C)ncnc4C(C)C)c3=O)N2C[C@H]1C [Compound 19A] | 8 | 14 | – | – | – | IC50 [3, 6]: 0.008 µM
C=CC(=O)N1C[C@@H]2C(=O)N(C)c3c(c4cc(F)c(-c5c(O)cccc5F)c(F)c4n(-c4c(C(C)C)ncnc4C(C)C)c3=O)N2C[C@H]1C [Compound 20A] | 4 | 10 | – | – | – | IC50 [3, 6]: 0.004 µM
C=CC(=O)N1C[C@@H]2C(=O)N(C)c3c(c4cc(F)c(-c5c(O)cccc5F)c(F)c4n(-c4c(C(C)C)ncnc4C(C)C)c3=O)N2C[C@H]1C [Compound 20B] | – | – | 413 | 1600 | 0.264 | –
C=CC(=O)N1C[C@@H]2C(=O)N(C)c3c(c4cc(Cl)c(-c5c(O)cccc5F)nc4n(-c4c(C)ccnc4C(C)C)c3=O)N2C[C@H]1C [Compound 25A] | 10 | 29 | – | – | – | IC50 [3, 6]: 0.014 µM

Now from value to compound, other results behind:

GI50 ([1]; Homo sapiens, NCI-H358, 72 h) [nM] | GI50 [2, 4] [nM] | GI50 ([1]; NCI-H358, 72 hours) [nM] | GI50 ([2]; MIA-Paca2, 72 hours) [nM] | SMILES | IC50 [3, 5] [µM] | other results
– | – | 42 | 119 | C=CC(=O)N1CC2C(=O)Nc3c(c4cc(F)c(-c5c(O)cccc5F)c(F)c4n(-c4c(C)ccnc4C(C)C)c3=O)N2CC1C (single isomer, unassigned) [Compound 22A-2] | 0.054 | –
– | – | 2 | 1 | C=CC(=O)N1C[C@@H]2C(=O)N(CCN(C)C)c3c(c4cc(Cl)c(-c5c(O)cccc5F)c(F)c4n(-c4c(C)ccnc4C(C)C)c3=O)N2C[C@H]1C (single isomer, unassigned) [Compound 26C] | 0.002 | –
91 | 156 | – | – | C=CC(=O)N1C[C@@H]2C(=O)N(C)c3c(c4cc(F)c(-c5c(O)cccc5F)c(F)c4n(-c4c(C)ccnc4C(C)C)c3=O)N2C[C@H]1C [Compound 21A-1] | 0.104 | –
– | – | 10 | 34 | C=CC(=O)N1C[C@@H]2C(=O)N(C)c3c(c4cc(F)c(-c5c(O)cccc5F)c(F)c4n(-c4c(C)ccnc4C(C)C)c3=O)N2C[C@H]1C [Compound 21A-2] | 0.015 | –
– | – | 28 | 85 | C=CC(=O)N1C[C@@H]2C(=O)Nc3c(c4cc(F)c(-c5c(O)cccc5F)c(F)c4n(-c4c(C)ccnc4C(C)C)c3=O)N2C[C@H]1C [Compound 22A-1] | 0.06 | –
– | – | 10 | 24 | C=CC(=O)N1C[C@@H]2C(=O)Nc3c(c4cc(F)c(-c5c(O)cccc5F)c(F)c4n(-c4c(C)ccnc4C(C)C)c3=O)N2C[C@H]1C [Compound 22A] | 0.016 | –
104 | 281 | – | – | C=CC(=O)N1C[C@@H]2C(=O)N(C)c3c(c4cc(Cl)c(-c5c(O)cccc5F)c(F)c4n(-c4c(C)ccnc4C(C)C)c3=O)N2C[C@H]1C [Compound 23A-1] | – | IC50 [3, 6]: 0.111 µM
– | – | 3 | 14 | C=CC(=O)N1C[C@@H]2C(=O)N(C)c3c(c4cc(Cl)c(-c5c(O)cccc5F)c(F)c4n(-c4c(C)ccnc4C(C)C)c3=O)N2C[C@H]1C [Compound 23A-2] | 0.003 | –
– | – | 68 | 112 | C=CC(=O)N1CC2C(=O)N(CCN(C)C)c3c(c4cc(F)c(-c5c(O)cccc5F)c(F)c4n(-c4c(C)ccnc4C(C)C)c3=O)N2CC1C (stereo not drawn) [Compound 24B] | 0.075 | –
– | – | 11 | 23 | C=CC(=O)N1CC2C(=O)N(CCN(C)C)c3c(c4cc(F)c(-c5c(O)cccc5F)c(F)c4n(-c4c(C)ccnc4C(C)C)c3=O)N2CC1C (stereo not drawn) [Compound 24C] | 0.012 | –
– | – | 232 | 407 | C=CC(=O)N1CC2C(=O)N(CCN(C)C)c3c(c4cc(F)c(-c5c(O)cccc5F)c(F)c4n(-c4c(C)ccnc4C(C)C)c3=O)N2CC1C (stereo not drawn) [Compound 24D] | 0.246 | –
